The source of these data is US20250257055A1, “TERTIARY AMIDE DERIVATIVES SUBSTITUTED WITH 4-MEMBERED RING STRUCTURE” (Sumitomo Pharma Co., Ltd., priority 2024, published 2025).

Structures are written as SMILES. ≈ marks a conversion by molar mass, not a printed value. Where two headings read alike, the source gives them in different places.

One data set has as its system RMGI cells. Put plainly: Cell proliferation inhibition experiment using RMGI cells. The data set is classed as cell-based. Particulars: Homo sapiens, RMG-I, 144 h, cultured for 6 days, CellTiter-Glo. Here is the method:
RMGI cells (derived from ovarian cancer) were obtained from JCRB cell bank. RMGI cells were cultured in Ham's F12 medium containing 10% fetal bovine serum and 1% penicillin/streptomycin under conditions of 37° C. and 5% CO2.
200 cells per well were seeded in a 384-well plate. One day after seeding, Examples 3, 7, 9, 10, 11, 20, and 23 to 25 were added so that the final concentration of DMSO was 0.1%, and the cells were cultured for 6 days. After the culture was completed, the cell viability was measured using CellTiter-Glo Luminescent Cell Viability Assay (Promega, G7570).
On the technique in general: In ATP-based viability assays light output follows the ATP content of the culture.

A short description of data set [1]: Membrane permeability test (PAMPA). The format is in vitro ADME. A digest of the protocol:
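Donor compartment held compound in system solution over a GIT Lipid-0 membrane, with sink buffer on the acceptor side; incubation 4 h at 37° C. Donor and acceptor concentrations were read by UV (190-500 nm), or by LC-MS for weakly absorbing compounds, and Pe (10^−6 cm/sec) was calculated.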
(PAMPA measures passive passage across an artificial lipid membrane.)

The subject of the next data set is G-401 xenograft. Put plainly: Drug efficacy evaluation by intravenous administration using G-401 xenograft mice model. The format is in vivo. The note with it: for antitumor effect (in words): G-401 xenograft model, intravenous administration; for T/C: intravenous (tail vein), 14 days. Here is the method: G-401 cells (ATCC) were intradermally transplanted into 4-7-week-old BALB/cAnNCrj-nu/nu mice (CAnN.Cg-Foxn1/CrlCrlj, Jackson Laboratory Japan) at 5×10^5 cells/mouse. After confirming the engraftment of G-401 cells 10-40 days after transplantation, the test compound suspended in a solvent such as 10 mmol/L glycine buffer solution (pH 2.0) was administered via the tail vein at least once a week at a dose of 0.015-20 mg/kg. The tumor volume was measured over time from the start of administration, and the effect of tumor volume reduction by administration of the test compound was evaluated. The tumor volume can be calculated from the following equation using the minor axis and major axis of the tumor measured with an electronic caliper (Mitutoyo).
A control administration group administered with only a solvent such as 10 mmol/L glycine buffer solution (pH 2.0) and a test compound administration group were compared, and the antitumor effect was evaluated by calculating T/C from the following equation.

The next data set deals with hSERT (Homo sapiens (Human), UniProt P31645). The data set can be described thus: Serotonin receptor inhibitory activity evaluation (binding assay, HEK293/hSERT membranes). Particulars: HEK293/hSERT membrane preparation, [3H]Paroxetin. Here is the method:
The binding evaluation assay was outsourced to Eurofins. Specifically, HEK293/hSERT cells were homogenized in a buffer consisting of 100 mmol/L NaCl, 1 μmol/L Leupeptin, 10 μmol/L PMSF, and 50 mmol/L Tris-HCl (pH7.4). The membrane pellet obtained by centrifugation was resuspended in an incubation buffer consisting of 50 mmol/L Tris-HCl (pH 7.4), 120 mmol/L NaCl, and 5 mmol/L KCl to prepare a membrane preparation. The test compound (1-10 μmol/L DMSO solution), the membrane preparation, and 0.4 nmol/L [^3H]Paroxetin were mixed and incubated at 25° C. for 60 minutes. The cell membrane-[^3H]Paroxetin complex was bound to a GF/B filter mat by vacuum filtration and washed with 50 mmol/L Tris-HCl (pH 7.4). The effect on the receptor was assessed by measuring radioactivity using a scintillation counter.

The target in another data set is hDAT (Homo sapiens (Human), UniProt Q01959). The data set can be described thus: Dopamine receptor inhibitory activity evaluation (binding assay, CHO-S/hDAT membranes). Particulars: CHO-S/hDAT membrane preparation. Here is the method:
The binding evaluation assay was outsourced to Eurofins. Specifically, CHO-S/hDAT cells were homogenized in an incubation buffer consisting of 50 mmol/L Tris-HCl, pH 7.4, 100 mmol/L NaCl, 1 μmol/L Leupeptin, and 10 μmol/L PMSF. The membrane pellet obtained by centrifugation was resuspended in the incubation buffer to prepare a membrane preparation. The test compound (1-10 μmol/L DMSO solution), the membrane preparation, and 0.15 nmol/L […] were mixed and incubated at 4° C. for 180 minutes. The cell membrane-[^125I]RTI-55 complex was bound to a GF/B filter mat by vacuum filtration and washed with 50 mmol/L Tris-HCl, pH 7.4. The effect on the receptor was assessed by measuring radioactivity using a scintillation counter.

The subject of a further data set is G-401 cells. Put plainly: Cell proliferation inhibition experiment using G-401 cells. The data set is classed as cell-based. Particulars: Homo sapiens, 72 h, cultured for 3 days, CellTiter-Glo. A digest of the protocol:
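Malignant rhabdoid tumor-derived cells, grown in McCoy's 5A with 10% FBS, were seeded at 500 cells/well and dosed one day later (final DMSO 0.1%). After 3 days of culture at 37° C, viability was read by CellTiter-Glo luminescence.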

The nature of the next data set: Solubility test. The data set is classed as physicochemical. Particulars: aqueous buffer, thermodynamic from solid, 5° C., overnight. Here is the method:
The solubility was measured for Examples 7, 10, 20, 23, 24, and 30 to 34, Comparative Example 1, and Comparative Example 2. The test compound was added to 10 mmol/L glycine buffer (pH 2.0) and 10 mmol/L citrate buffer (pH 3.0), and the mixture was stored in a thermostatic chamber at 5° C. After standing overnight, the mixture was filtered through a membrane filter, and the concentration of the filtrate was measured by HPLC.

A further data set deals with recombinant p300 (Homo sapiens (Human), UniProt Q09472). Put plainly: HAT activity inhibition experiment (SensoLyte HAT(p300) Assay Kit). The data set is classed as biochemical. The note with it: recombinant p300, histone H3 peptide, acetyl CoA. A digest of the protocol: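 Recombinant human p300 preincubated with compound 10 min at room temperature, then acetyl-CoA and histone H3 peptide added and reacted 30 min at 37 °C. After stop, developer added for 30 min at room temperature in the dark; fluorescence read at Ex 389/Em 513 nm.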

Where [2] appears, read: pH 5.0, 37° C., read-out: pH 5.0 Pe.
Where [3] appears, read: pH 7.4, 37° C., read-out: pH 7.4 Pe.
[4] abbreviates: 10 mmol/L citrate buffer (pH 3.0), read-out: Solubility in pH 3.0 buffer.
[5] abbreviates: 10 mmol/L glycine buffer (pH 2.0), read-out: Solubility in pH 2.0 buffer.

Chain of hDAT (Q01959 whole entry): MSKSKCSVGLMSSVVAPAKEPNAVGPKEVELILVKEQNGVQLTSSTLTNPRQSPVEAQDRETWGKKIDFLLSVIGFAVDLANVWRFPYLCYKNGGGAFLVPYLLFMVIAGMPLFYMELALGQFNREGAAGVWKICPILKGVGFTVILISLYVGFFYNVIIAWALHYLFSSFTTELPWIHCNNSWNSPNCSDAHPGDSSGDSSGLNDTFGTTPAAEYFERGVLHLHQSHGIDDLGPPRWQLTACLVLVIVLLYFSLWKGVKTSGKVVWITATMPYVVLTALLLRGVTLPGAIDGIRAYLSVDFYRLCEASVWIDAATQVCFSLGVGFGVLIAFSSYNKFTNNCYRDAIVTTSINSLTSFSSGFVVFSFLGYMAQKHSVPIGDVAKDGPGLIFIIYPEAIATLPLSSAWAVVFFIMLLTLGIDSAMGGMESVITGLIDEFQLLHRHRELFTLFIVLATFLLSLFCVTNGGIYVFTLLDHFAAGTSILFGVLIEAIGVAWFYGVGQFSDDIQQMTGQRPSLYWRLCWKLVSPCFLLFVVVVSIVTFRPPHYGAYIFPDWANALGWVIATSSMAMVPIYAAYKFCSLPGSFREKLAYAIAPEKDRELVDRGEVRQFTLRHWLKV
Chain of hSERT (P31645 whole entry): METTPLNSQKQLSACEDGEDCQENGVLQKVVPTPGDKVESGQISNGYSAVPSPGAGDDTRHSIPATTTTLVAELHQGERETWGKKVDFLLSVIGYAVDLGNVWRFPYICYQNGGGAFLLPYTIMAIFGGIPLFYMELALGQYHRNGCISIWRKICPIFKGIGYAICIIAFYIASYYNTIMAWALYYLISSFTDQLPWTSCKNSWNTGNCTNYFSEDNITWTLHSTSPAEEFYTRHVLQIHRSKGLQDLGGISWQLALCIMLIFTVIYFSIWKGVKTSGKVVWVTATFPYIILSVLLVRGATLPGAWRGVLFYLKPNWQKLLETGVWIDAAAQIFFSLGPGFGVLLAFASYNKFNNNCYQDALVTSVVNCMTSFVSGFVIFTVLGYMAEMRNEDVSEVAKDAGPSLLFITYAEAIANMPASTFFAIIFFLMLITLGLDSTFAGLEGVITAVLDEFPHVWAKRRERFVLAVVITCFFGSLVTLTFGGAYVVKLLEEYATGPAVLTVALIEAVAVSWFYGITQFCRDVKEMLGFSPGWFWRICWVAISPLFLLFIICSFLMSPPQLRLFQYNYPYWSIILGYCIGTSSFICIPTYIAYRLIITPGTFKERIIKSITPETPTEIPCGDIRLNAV
Chain of recombinant p300 (Q09472 whole entry): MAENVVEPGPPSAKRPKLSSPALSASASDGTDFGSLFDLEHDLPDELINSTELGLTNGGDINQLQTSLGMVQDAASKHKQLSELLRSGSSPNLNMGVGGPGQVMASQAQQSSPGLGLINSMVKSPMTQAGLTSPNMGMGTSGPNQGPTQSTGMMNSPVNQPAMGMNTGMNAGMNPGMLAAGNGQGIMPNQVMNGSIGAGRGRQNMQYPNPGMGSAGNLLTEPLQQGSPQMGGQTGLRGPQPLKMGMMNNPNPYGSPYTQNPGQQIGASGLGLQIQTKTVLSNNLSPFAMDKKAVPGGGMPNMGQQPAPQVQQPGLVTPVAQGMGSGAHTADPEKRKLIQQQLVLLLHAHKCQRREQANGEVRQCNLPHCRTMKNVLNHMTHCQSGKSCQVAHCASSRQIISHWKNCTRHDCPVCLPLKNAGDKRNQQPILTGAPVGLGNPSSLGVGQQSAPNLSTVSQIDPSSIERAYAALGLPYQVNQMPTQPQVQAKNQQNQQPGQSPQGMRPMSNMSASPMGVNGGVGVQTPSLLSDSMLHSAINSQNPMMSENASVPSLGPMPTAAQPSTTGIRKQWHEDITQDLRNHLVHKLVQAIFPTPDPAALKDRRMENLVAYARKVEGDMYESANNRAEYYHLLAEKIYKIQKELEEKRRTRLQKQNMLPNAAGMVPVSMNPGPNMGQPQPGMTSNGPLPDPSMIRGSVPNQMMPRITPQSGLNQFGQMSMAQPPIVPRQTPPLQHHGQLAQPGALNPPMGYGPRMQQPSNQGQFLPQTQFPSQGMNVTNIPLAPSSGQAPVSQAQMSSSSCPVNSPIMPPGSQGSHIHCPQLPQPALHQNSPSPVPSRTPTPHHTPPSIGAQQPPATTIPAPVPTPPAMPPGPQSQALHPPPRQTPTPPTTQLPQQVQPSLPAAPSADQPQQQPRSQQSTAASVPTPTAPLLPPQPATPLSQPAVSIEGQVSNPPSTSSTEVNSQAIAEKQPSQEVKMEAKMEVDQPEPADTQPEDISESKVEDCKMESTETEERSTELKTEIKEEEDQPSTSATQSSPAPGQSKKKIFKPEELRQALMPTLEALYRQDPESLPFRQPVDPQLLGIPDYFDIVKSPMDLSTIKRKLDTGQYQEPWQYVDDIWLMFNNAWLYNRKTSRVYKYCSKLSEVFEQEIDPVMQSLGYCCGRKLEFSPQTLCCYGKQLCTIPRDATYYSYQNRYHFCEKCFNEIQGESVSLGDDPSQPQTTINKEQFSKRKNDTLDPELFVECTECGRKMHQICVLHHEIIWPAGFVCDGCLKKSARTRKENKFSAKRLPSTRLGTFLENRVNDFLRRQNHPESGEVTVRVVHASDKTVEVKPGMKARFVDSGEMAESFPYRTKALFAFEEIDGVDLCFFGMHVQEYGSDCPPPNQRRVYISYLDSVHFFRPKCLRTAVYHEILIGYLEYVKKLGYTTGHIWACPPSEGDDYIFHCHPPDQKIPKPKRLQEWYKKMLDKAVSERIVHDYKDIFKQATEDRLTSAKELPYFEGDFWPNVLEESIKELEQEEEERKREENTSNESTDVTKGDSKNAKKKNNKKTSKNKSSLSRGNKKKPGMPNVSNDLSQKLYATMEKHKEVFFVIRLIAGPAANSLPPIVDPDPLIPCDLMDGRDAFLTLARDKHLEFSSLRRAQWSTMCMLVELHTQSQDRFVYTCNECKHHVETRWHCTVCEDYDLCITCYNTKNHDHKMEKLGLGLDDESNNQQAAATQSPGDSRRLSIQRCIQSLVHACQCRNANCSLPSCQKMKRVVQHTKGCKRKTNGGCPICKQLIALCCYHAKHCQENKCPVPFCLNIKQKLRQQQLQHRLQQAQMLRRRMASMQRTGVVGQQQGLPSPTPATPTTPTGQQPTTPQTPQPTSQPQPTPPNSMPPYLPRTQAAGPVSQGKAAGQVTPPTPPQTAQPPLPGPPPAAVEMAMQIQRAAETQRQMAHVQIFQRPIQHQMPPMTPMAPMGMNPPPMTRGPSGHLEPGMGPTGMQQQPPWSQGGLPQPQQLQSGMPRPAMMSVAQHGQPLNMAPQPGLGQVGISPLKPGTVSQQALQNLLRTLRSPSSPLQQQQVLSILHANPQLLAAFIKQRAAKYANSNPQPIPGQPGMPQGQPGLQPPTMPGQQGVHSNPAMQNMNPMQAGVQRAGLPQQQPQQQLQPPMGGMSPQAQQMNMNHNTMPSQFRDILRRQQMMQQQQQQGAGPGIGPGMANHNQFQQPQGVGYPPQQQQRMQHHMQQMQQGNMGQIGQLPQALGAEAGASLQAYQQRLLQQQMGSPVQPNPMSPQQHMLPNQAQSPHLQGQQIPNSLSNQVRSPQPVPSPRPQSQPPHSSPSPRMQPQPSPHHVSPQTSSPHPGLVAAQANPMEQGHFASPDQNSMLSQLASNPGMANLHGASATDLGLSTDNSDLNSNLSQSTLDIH

With `CN1CC(N(Cc2ccc(F)cn2)C(=O)CN2C(=O)N[C@]3(C[C@@H](F)c4cc(-c5cnn(C)c5)ccc43)C2=O)(C(F)(F)F)C1` [Example 20, 2-[(1′S,3′R)-3′-fluoro-5′-(1-methyl-1H-pyrazol-4-yl)-2,5-dioxo-2′,3′-dihydrospiro[imidazolidine-4,1′-inden]-1-yl]-N-[(5-fluoropyridin-2-yl)methyl]-N-[1-methyl-3-(trifluoromethyl)azetidin-3-yl]acetamide], the IC50 (as a rule, the concentration at which inhibition is half-maximal) in the data set with RMGI cells amounted to 43 nM; in the data set with G-401 cells, 36 nM; on recombinant p300, 1.7 nM. For the same compound, the Papp at 4 h in data set [1] (setting [2]) was found to be 7.8 ×10⁻⁶ cm/s; in data set [1] (setting [3]) it was 21.9 ×10⁻⁶ cm/s. Moreover, the “antitumor effect (in words)” value in the data set with G-401 xenograft is listed as “strong antitumor effects”. Further, the T/C (in general, the ratio of treated to control) with G-401 xenograft (10 mg/kg) is on record as 53%. Moreover, the figures for the inhibition at 10 µM on hSERT and at hDAT were -1% and 46%, respectively. In addition, the solubility (commonly the concentration that dissolves in the medium under given conditions) in “Solubility test” (setting [4]) is 8600 µg/mL (≈ 14.2 mM); in the data set “Solubility test” (setting [5]), over 10000 µg/mL.
Regarding `O=C1N[C@]2(C[C@@H](F)c3cc(-c4cnn(C5CN(C6COC6)C5)c4)ccc32)C(=O)N1CC(=O)N(Cc1ccc(F)cn1)C1(C(F)(F)F)COC1` [Example 7, 2-[(1′S,3′R)-3′-fluoro-5′-{1-[1-(oxetan-3-yl)azetidin-3-yl]-1H-pyrazol-4-yl}-2,5-dioxo-2′,3′-dihydrospiro[imidazolidine-4,1′-inden]-1-yl]-N-[(5-fluoropyridin-2-yl)methyl]-N-[3-(trifluoromethyl)oxetan-3-yl]acetamide], the IC50 came out at 35 nM in the data set with RMGI cells, 44 nM with G-401 cells and 0.9 nM on recombinant p300. Besides, the results for the Papp at 4 h in data set [1] (setting [2]) and in data set [1] (setting [3]) were 3 ×10⁻⁶ cm/s and 5.1 ×10⁻⁶ cm/s, respectively. Moreover, the “antitumor effect (in words)” value with G-401 xenograft is recorded as “strong antitumor effects”. This compound also came in with a T/C with G-401 xenograft (20 mg/kg) of 40%. The inhibition (in general, the relative decrease from the control value, in per cent) at 10 µM was -1% on hSERT and 7% on hDAT. The figures for the solubility in the data set “Solubility test” (setting [4]) and in the data set “Solubility test” (setting [5]) were 4600 µg/mL (≈ 6.69 mM) and over 10000 µg/mL, respectively.
As to `O=C1N[C@]2(C[C@@H](F)c3cc(-c4cnn(C5CCN(C6COC6)CC5)c4)ccc32)C(=O)N1CC(=O)N(Cc1ccc(F)cn1)C1(C(F)(F)F)COC1` [Example 23, 2-[(1′S,3′R)-3′-fluoro-5′-{1-[1-(oxetan-3-yl)piperidin-4-yl]-1H-pyrazol-4-yl}-2,5-dioxo-2′,3′-dihydrospiro[imidazolidine-4,1′-inden]-1-yl]-N-[(5-fluoropyridin-2-yl)methyl]-N-[3-(trifluoromethyl)oxetan-3-yl]acetamide], the IC50 in the data set on RMGI cells is 54 nM; in the data set with G-401 cells it was 82 nM; at recombinant p300 it was 9 nM. Also, the figures for the Papp at 4 h in data set [1] (setting [2]) and in data set [1] (setting [3]) were 3.2 ×10⁻⁶ cm/s and 7 ×10⁻⁶ cm/s, respectively. Besides, the “antitumor effect (in words)” value with G-401 xenograft is on record as “strong antitumor effects”. Besides, the T/C in the data set on G-401 xenograft (20 mg/kg) is reported as 54%. In addition, the figures for the inhibition at 10 µM on hSERT and on hDAT were 3% and 7%, respectively. Moreover, the figures for the solubility in “Solubility test” (setting [4]) and in “Solubility test” (setting [5]) were 8600 µg/mL (≈ 12 mM) and over 10000 µg/mL, respectively.
For the compound `CN1CC(N(Cc2ccc(F)cc2)C(=O)CN2C(=O)N[C@]3(C[C@@H](F)c4cc(-c5cnn(C)c5)ccc43)C2=O)(C(F)(F)F)C1` [Example 10, 2-[(1′S,3′R)-3′-fluoro-5′-(1-methyl-1H-pyrazol-4-yl)-2,5-dioxo-2′,3′-dihydrospiro[imidazolidine-4,1′-inden]-1-yl]-N-[(4-fluorophenyl)methyl]-N-[1-methyl-3-(trifluoromethyl)azetidin-3-yl]acetamide], the figures for the IC50 in the data set on RMGI cells, in the data set on G-401 cells and on recombinant p300 were 6 nM, 10 nM and 0.4 nM, respectively. The Papp at 4 h in data set [1] (setting [2]) was determined as 23.9 ×10⁻⁶ cm/s; in data set [1] (setting [3]), 28.6 ×10⁻⁶ cm/s. Besides, the “antitumor effect (in words)” value in the data set with G-401 xenograft was “strong antitumor effects”. In the data set on G-401 xenograft (10 mg/kg), the T/C amounted to 73%. The inhibition at 10 µM was -5% on hSERT and 6% at hDAT. Besides, the solubility in the data set “Solubility test” (setting [4]) is 1600 µg/mL (≈ 2.66 mM); in “Solubility test” (setting [5]) it was over 10000 µg/mL.
As for `CN1CC(N(Cc2ccc(F)cn2)C(=O)CN2C(=O)N[C@]3(C[C@@H](F)c4cc(-c5cnn(C6COC6)c5)ccc43)C2=O)(C(F)(F)F)C1` [Example 24, 2-{(1′S,3′R)-3′-fluoro-5′-[1-(oxetan-3-yl)-1H-pyrazol-4-yl]-2,5-dioxo-2′,3′-dihydrospiro[imidazolidine-4,1′-inden]-1-yl}-N-[(5-fluoropyridin-2-yl)methyl]-N-[1-methyl-3-(trifluoromethyl)azetidin-3-yl]acetamide], the half-maximal inhibitory concentration (IC50) in the data set with RMGI cells turned out to be 37 nM; with G-401 cells, 36 nM; at recombinant p300, 9.8 nM. The Papp at 4 h came out at 1.6 ×10⁻⁶ cm/s in data set [1] (setting [2]) and 8.2 ×10⁻⁶ cm/s in data set [1] (setting [3]). Besides, the “antitumor effect (in words)” value in the data set with G-401 xenograft was “strong antitumor effects”. The T/C in the data set with G-401 xenograft (20 mg/kg) is 44%. The figures for the inhibition at 10 µM at hSERT and on hDAT were 15% and 6%, respectively. Moreover, the solubility in “Solubility test” (setting [4]) and in the data set “Solubility test” (setting [5]) was over 10000 µg/mL each time.
